# Laboratory results from ChEMBL document CHEMBL5715954, “Silencing c-Myc translation as a therapeutic strategy through targeting PI3Kδ and CK1ε in hematological malignancies” (Blood, 2017).
# How the values were obtained:
# Parameters in all cases: scale not given: the % may be the effect or the level left
# [1] = target: Serine/threonine-protein kinase MARK1 (Homo sapiens) (UniProt Q9P0L2); assay: Inhibition of human MARK1 assessed as enzyme activity at 1 uM using KKKVSRSGLYRSPSMPENLNRPR as substrate preincubated for 20 mins followed by [gamma-33P]-ATP addition and measured after 120 mins by radiometric Hot-SpotSM Kinase assay relative to control
# Serine/threonine-protein kinase MARK1 (Homo sapiens), sequence (Q9P0L2 whole entry, looked up): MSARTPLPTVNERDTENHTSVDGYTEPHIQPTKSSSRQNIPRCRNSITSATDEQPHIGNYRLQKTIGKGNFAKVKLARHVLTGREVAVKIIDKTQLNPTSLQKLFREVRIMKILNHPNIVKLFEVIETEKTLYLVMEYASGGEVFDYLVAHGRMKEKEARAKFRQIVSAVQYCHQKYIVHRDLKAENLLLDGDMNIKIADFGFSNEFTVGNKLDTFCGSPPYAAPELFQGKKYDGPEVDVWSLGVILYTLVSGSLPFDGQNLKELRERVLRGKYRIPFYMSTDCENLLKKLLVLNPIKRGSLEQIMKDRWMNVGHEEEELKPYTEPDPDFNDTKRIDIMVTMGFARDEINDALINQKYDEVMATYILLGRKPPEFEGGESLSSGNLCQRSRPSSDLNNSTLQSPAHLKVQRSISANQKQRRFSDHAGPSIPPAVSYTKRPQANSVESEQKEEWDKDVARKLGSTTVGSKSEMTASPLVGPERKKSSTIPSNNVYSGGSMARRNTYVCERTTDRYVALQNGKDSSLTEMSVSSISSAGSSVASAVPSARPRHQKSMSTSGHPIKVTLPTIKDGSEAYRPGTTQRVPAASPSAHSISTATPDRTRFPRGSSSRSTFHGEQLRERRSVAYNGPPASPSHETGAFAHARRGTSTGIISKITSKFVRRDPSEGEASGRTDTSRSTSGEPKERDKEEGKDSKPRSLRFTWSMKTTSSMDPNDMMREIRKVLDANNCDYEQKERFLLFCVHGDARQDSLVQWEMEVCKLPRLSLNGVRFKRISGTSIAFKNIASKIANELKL
# [2] = target: Ephrin type-A receptor 5 (Homo sapiens) (UniProt P54756); assay: Inhibition of human EPHA5 assessed as enzyme activity at 1 uM using poly[Glu:Tyr] (4:1) as substrate preincubated for 20 mins followed by [gamma-33P]-ATP addition and measured after 120 mins by radiometric Hot-SpotSM Kinase assay relative to control
# Ephrin type-A receptor 5 (Homo sapiens), sequence (P54756 whole entry, canonical isoform): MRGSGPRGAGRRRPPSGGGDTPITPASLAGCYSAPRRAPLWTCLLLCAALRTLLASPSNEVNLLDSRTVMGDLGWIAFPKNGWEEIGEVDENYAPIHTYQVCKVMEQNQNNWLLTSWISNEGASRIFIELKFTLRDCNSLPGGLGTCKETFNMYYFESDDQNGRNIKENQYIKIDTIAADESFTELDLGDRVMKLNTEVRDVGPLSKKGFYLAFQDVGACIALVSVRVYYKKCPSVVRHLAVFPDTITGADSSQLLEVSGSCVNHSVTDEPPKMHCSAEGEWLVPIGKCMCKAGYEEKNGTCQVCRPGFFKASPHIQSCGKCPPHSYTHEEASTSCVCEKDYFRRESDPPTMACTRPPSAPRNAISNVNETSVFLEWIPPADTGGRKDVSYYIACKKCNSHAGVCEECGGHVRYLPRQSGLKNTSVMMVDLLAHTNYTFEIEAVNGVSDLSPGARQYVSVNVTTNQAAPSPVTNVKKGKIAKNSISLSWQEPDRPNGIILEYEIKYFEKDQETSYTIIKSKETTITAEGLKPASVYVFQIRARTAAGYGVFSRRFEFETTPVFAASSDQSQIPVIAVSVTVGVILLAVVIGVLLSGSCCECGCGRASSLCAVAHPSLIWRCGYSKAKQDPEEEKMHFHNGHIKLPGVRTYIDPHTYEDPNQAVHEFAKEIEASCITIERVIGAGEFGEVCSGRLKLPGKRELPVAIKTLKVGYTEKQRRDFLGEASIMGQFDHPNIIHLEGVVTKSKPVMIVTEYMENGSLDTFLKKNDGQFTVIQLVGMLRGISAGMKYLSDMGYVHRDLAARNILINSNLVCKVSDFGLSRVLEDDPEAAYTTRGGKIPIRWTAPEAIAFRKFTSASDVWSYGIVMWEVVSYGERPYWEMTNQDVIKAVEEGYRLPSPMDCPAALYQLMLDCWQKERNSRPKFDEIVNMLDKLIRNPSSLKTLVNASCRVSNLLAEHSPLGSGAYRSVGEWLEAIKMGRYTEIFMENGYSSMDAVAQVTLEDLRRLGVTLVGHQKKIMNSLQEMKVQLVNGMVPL
# [3] = target: T1, Casein kinase I isoform alpha-like (Homo sapiens) (UniProt Q8N752); assay: Inhibition of human CK1a1L assessed as enzyme activity at 1 uM using KRRRAL[pS]VASLPGL as substrate preincubated for 20 mins followed by [gamma-33P]-ATP addition and measured after 120 mins by radiometric Hot-SpotSM Kinase assay relative to control
# T1 sequence (whole entry): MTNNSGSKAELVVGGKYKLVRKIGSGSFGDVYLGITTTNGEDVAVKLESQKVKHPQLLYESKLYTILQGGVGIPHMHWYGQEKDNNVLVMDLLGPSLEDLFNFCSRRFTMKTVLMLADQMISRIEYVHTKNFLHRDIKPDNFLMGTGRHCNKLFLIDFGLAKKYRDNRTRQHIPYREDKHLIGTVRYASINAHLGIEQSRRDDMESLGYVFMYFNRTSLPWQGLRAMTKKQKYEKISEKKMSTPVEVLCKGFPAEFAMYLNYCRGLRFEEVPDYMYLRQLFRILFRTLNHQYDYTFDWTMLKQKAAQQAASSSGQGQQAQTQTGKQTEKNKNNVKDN
# [4] = target: Ribosomal protein S6 kinase alpha-1 (Homo sapiens) (UniProt Q15418); assay: Inhibition of human RSK1 assessed as enzyme activity at 1 uM using KKLNRTLSVA as substrate preincubated for 20 mins followed by [gamma-33P]-ATP addition and measured after 120 mins by radiometric Hot-SpotSM Kinase assay relative to control
# Ribosomal protein S6 kinase alpha-1 (Homo sapiens), sequence (Q15418 whole entry): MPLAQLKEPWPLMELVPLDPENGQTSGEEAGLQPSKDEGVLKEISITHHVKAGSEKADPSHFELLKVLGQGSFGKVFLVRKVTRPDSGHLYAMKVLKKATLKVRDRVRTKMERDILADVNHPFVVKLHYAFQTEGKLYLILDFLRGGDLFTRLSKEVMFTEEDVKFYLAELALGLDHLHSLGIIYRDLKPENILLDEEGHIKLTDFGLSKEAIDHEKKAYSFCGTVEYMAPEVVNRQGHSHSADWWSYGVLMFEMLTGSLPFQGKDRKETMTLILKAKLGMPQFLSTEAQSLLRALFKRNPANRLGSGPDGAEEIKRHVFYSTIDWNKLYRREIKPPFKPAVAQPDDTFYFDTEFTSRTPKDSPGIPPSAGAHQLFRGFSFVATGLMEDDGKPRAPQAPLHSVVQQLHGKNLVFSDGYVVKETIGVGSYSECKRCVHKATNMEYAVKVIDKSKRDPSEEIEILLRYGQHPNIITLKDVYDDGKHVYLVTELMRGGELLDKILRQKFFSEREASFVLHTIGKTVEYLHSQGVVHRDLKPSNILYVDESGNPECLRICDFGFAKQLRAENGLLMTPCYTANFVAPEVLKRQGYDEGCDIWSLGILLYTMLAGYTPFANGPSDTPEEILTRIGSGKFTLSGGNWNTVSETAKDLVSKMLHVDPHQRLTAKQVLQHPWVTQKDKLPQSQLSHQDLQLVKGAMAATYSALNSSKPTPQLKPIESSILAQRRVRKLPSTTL
# [5] = target: MAP kinase-activated protein kinase 3 (Homo sapiens) (UniProt Q16644); assay: Inhibition of human MAPKAPK3 assessed as enzyme activity at 1 uM using KKLNRTLSVA as substrate preincubated for 20 mins followed by [gamma-33P]-ATP addition and measured after 120 mins by radiometric Hot-SpotSM Kinase assay relative to control
# MAP kinase-activated protein kinase 3 (Homo sapiens), sequence (Q16644 whole entry, looked up): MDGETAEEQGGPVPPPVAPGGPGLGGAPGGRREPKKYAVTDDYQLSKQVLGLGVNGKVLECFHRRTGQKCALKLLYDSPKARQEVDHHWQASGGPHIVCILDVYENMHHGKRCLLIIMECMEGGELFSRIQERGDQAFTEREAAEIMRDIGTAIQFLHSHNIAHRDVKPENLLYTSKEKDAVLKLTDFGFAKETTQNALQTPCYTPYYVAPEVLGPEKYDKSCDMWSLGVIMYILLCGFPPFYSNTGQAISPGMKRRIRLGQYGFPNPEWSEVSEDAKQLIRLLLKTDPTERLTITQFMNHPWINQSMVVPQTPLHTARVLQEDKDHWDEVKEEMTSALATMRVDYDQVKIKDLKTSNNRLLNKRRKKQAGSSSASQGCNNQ
# [6] = target: T2, Serine/threonine-protein kinase Nek9 (Homo sapiens) (UniProt Q8TD19); assay: Inhibition of human NEK9 assessed as enzyme activity at 1 uM using myelin basic protein as substrate preincubated for 20 mins followed by [gamma-33P]-ATP addition and measured after 120 mins by radiometric Hot-SpotSM Kinase assay relative to control
# T2 sequence (whole entry): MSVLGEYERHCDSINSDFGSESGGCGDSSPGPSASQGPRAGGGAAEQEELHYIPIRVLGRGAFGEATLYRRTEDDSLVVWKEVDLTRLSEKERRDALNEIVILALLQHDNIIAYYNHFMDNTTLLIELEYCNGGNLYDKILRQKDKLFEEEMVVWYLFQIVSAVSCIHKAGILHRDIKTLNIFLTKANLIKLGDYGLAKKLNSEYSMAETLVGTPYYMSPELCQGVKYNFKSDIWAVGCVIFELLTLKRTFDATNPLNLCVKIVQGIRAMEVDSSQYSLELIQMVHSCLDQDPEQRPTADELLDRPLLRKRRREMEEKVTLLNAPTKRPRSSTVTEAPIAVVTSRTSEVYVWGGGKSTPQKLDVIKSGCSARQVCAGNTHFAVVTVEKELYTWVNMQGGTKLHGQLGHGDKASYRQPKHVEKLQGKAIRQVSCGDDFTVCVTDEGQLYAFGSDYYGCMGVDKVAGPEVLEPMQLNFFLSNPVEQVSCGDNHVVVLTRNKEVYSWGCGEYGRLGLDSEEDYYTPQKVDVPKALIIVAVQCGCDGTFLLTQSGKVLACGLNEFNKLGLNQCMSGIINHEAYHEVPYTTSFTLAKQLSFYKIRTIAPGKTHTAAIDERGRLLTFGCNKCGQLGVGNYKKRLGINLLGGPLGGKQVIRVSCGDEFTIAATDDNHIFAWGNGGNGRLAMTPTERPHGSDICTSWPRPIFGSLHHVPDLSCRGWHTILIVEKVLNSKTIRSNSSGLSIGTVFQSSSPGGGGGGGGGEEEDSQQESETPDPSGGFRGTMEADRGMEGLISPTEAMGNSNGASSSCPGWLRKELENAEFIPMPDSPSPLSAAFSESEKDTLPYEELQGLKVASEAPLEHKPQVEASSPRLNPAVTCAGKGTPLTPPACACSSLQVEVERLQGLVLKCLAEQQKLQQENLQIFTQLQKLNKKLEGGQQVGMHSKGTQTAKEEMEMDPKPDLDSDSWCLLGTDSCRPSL
# [7] = target: Serine/threonine-protein kinase PLK3 (Homo sapiens) (UniProt Q9H4B4); assay: Inhibition of human PLK3 assessed as enzyme activity at 1 uM using casein as substrate preincubated for 20 mins followed by [gamma-33P]-ATP addition and measured after 120 mins by radiometric Hot-SpotSM Kinase assay relative to control
# Serine/threonine-protein kinase PLK3 (Homo sapiens), sequence (Q9H4B4 whole entry, looked up): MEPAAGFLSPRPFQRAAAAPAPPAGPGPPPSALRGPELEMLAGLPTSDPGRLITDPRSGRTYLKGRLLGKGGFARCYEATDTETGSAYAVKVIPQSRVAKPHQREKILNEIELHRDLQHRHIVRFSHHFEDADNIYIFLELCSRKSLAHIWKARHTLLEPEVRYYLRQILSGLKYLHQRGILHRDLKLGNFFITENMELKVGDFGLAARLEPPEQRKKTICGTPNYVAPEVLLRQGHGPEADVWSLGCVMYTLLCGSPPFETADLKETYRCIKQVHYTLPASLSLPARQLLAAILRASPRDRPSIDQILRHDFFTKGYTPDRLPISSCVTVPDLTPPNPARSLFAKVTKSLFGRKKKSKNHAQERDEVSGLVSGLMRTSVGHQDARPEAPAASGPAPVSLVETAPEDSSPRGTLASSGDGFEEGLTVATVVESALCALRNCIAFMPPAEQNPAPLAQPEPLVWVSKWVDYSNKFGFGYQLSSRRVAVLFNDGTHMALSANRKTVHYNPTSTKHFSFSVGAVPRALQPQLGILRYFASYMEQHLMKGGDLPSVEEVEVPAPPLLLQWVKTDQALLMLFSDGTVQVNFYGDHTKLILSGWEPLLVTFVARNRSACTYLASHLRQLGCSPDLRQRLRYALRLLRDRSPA
# Homo sapiens = species: Homo sapiens; assay: Inhibition of human PKA assessed as enzyme activity at 1 uM using LCGRTGRRNSI as substrate preincubated for 20 mins followed by [gamma-33P]-ATP addition and measured after 120 mins by radiometric Hot-SpotSM Kinase assay relative to control
# [8] = target: Protein kinase C beta type (Homo sapiens) (UniProt P05771); assay: Inhibition of human PKCb2 assessed as enzyme activity at 1 uM using ERMRPRKRQGSVRRRV as substrate preincubated for 20 mins followed by [gamma-33P]-ATP addition and measured after 120 mins by radiometric Hot-SpotSM Kinase assay relative to control
# Protein kinase C beta type (Homo sapiens), sequence (P05771 2-671 limits assumed): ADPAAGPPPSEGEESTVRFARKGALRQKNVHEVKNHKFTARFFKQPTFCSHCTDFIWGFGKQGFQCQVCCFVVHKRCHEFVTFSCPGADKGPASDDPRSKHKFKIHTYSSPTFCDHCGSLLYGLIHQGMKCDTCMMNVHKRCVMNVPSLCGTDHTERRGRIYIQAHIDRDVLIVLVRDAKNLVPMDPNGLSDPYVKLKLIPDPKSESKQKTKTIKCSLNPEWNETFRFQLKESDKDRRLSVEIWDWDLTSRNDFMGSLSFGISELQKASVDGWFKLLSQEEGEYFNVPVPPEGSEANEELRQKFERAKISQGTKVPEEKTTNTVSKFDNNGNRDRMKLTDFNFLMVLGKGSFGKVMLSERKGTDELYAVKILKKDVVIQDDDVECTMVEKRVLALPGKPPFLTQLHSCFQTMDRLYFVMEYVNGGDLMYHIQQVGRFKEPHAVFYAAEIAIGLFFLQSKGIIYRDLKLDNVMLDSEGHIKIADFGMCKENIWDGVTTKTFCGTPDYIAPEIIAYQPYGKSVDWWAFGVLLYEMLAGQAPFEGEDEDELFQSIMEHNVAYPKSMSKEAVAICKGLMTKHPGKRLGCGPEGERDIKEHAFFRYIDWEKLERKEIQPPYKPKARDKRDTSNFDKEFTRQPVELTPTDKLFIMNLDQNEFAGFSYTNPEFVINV
SMILES,Activity [1] [%],Activity [2] [%],Activity [3] [%],Activity [4] [%],Activity [5] [%],Activity [6] [%],Activity [7] [%],Activity (Homo sapiens) [%],Activity [8] [%]
C[C@H](Nc1ncnc2nc[nH]c12)c1cc2cccc(Cl)c2c(=O)n1-c1ccccc1,93.3,104,99.5,100,95.8,94.8,95.1,95.5,93.9
CC[C@H](Nc1ncnc2[nH]cnc12)c1nc2cccc(F)c2c(=O)n1-c1ccccc1,99.9,105,101,101,97.3,95.1,98.4,102,91
CC(C)Oc1ccc(-c2nn([C@@H](C)c3oc4ccc(F)cc4c(=O)c3-c3cccc(F)c3)c3ncnc(N)c23)cc1F [UMBRALISIB],96.2,103,103,104,90.6,91.6,96.7,91.4,91.3
